For one series, the system named is CHIKV. The experiment in a line: CHIKV cytopathic effect (CPE) inhibition test. Format: cell-based, Chikungunya virus (CHIKV, strain Nic). The following applies: for EC50: Chikungunya virus, 120 h, read-out: Antiviral Activity, EC50 ± SD, CHIKV; for Activity against CHIKV (in words): concentrations studied up to 100 μM.
The test system of another series is SARS-CoV-2. The series is described as follows: SARS-CoV-2 cytopathic effect (CPE) inhibition test. Format: cell-based, strain PIK35. The following applies: for EC50: Severe acute respiratory syndrome coronavirus 2, 120 h, CPE inhibition in Vero cells, 5 days, M ± SD, read-out: Antiviral Activity, EC50 ± SD, SARS-CoV-2; for Activity against SARS-CoV-2 (in words): concentrations studied up to 100 μM. An excerpt:
(§1) The green monkey kidney (Vero) cell line originated from WHO Biologicals, Switzerland (10–87), and the Madin-Darby canine kidney (MDCK) cell line was obtained from the American Type Culture Collection (ATCC CCL-34).
(§2) Viruses and strains used in the present work were severe acute respiratory syndrome-related coronavirus 2 (SARS-CoV-2, strain PIK35, GISAID EPI_ISL_428852), Chikungunya virus (CHIKV, strain Nic, GenBank IDs MN271691-2) and influenza A virus (H1N1, strain A/PR/8/34, ATCC VR-95).
The procedure was described previously. In brief, two-fold dilutions of the compounds were prepared in Dulbecco MEM (Chumakov FSC R&D IBP RAS, Russia) and mixed 1:1 with a virus suspension containing 50–200 TCID50 and incubated for 1 h at 37 °C in a CO2 incubator. The final concentration series started from 100 μM. Then, compound-virus mixtures were added to confluent Vero cell monolayers in 2 replicates. After incubation at 37 °C in a CO2-incubator for 5 days, CPE signs (cell death) were assessed via microscope, and 50% effective concentration (EC50) (compound concentration required to decrease CPE by 50%) was calculated using the Karber method.

A further series relates to IAV. The experiment in a line: IAV virus yield reduction assay. In kind it is cell-based, influenza A virus (H1N1, strain A/PR/8/34). The following applies: Influenza A virus; virus yield reduction in MDCK cells, MOI 1, 24 h, M ± SD; read-out: Antiviral Activity, EC50 ± SD, IAV.
Source text: as §1, §2
Compound solutions were prepared in DMSO (20 mg/mL). The compounds were weighed in 2 mg amounts and dissolved in 100 μL of DMSO. Then, a series of 3-fold dilutions was prepared, starting from 300 µg/mL, in a cultural medium. The MDCK cell monolayer was treated with compound dilutions and incubated for 1 h in a CO2 incubator at 37 °C. Untreated cells were used as negative control. Afterward, the virus was added (MOI 1), and cells were incubated for 24 h at 37 °C in a CO2 incubator. After incubation, the culture medium was collected, and viral yields were determined by titration. In brief, a series of 10-fold dilutions (10^−7–10^−1) of viral supernatants were prepared in a cultural medium and applied to daily MDCK cell monolayers. Infected cells were incubated for 72 h at 37 °C in a CO2 incubator. The presence of the virus in the culture supernatants was determined using the hemagglutination assay with a 1% suspension of chicken erythrocytes. Viral titer was calculated according to the Reed-and-Muench method and was expressed as 50% tissue infectious doses (TID50) per 100 μL of volume. Inhibition (%) was calculated by comparison with non-treated cells, and EC50 was calculated from inhibitory curves.

Series [1] is described as follows: Cell viability assay in Vero cells (resazurin). Format: cell-based. The following applies: green monkey, 5 d, read-out: Cytotoxicity, CC50 ± SD, Vero. As to the method: as §1
Two-fold dilutions of the compounds (starting from 100 μM) were prepared in DMEM (Chumakov FSC R&D IBP RAS, Russia) and added to confluent cell monolayers. After 5 days of incubation (37 °C, 5% CO2), the cultural supernatant was substituted with a resazurin solution (25 μg/mL), followed by 4 h incubation (37 °C, 5% CO2). Then, 20 µL of 10% SDS were added to stop the reaction. Fluorescence intensity was measured with Promega GloMax-Multi Detection System (Ex525/Em580–640). Cells treated with dilutions of the compounds and DMSO, but not resazurin, were used to subtract the background fluorescence. All experimental procedures were performed in two replicates. Fluorescence curves were analyzed with Microsoft Excel 2013. 50% Cytotoxic concentrations (CC50) were calculated.

Series [2] can be described thus: Cell viability assay in MDCK cells (MTT). Format: cell-based, canine. The following applies: dog, read-out: Cytotoxicity, CC50 ± SD, MDCK. The procedure: as §1
Compound solutions were prepared in DMSO (20 mg/mL), and then 2-fold dilutions in cultural medium were prepared starting from 1000 μg/mL. One-day MDCK cell monolayers (over 95% confluency) in 96-well plates ([…]) were washed twice with serum-free alpha-MEM (Thermo-Fisher Scientific, USA) and treated with 100 μL of compound dilutions in 2 replicates. The plates were then incubated for 24 h at 37 °C in a CO2 incubator. Cell viability was assessed using the tetrazolium test (MTT, ApplyChem). Optical density was measured on a Wallac 1420 Victor2 microplate reader (Perkin Elmer, Ramsey, MN, USA) at 535 nm, then CC50 values were calculated.

The nature of series [3]: Solubility in water (photometry). Format: physicochemical. The following applies: for solubility at 30 min: thermodynamic from solid. As to the method:
The samples were dissolved in DMSO, diluted in series, and photometrically analyzed. The average molar absorption coefficient was calculated from the obtained optical densities of calibration solutions at the absorption maxima. Solubility values were determined as previously described by adding weighed amounts of compounds to distilled water followed by sonication (30 min), centrifugation (12,000 rpm, 10 min), and photometry.

Series [4] deals with influenza A/California/7/09/MA virus. Format: in vivo, BALB/c mice.
Setting [5] is: distilled water, sonication, centrifugation, photometry.

The text below walks through data of paper PMC9610897, “Cationic Perylene Antivirals with Aqueous Solubility for Studies In Vivo” (Pharmaceuticals, 2022).

In brackets after ≈: the same amount, converted by molar mass. Like-named read-outs stand apart in the source and are kept apart here. Some results are limits rather than exact numbers.

Regarding `C[N+]1(CCn2cc(-c3ccc4c5cccc6cccc(c7cccc3c74)c65)nn2)CCOCC1.[I-]` [Compound 3a, 4-Methyl-4-(2-(4-(perylen-3-yl)-1H-1,2,3-triazol-1-yl)ethyl)morpholin-4-ium iodide], the half-maximal effective concentration (EC50) was 11.3 ± 9 µM in the series on CHIKV (Vero), 1.88 ± 0.88 µM with SARS-CoV-2 and 49 ± 19 µM in the series with IAV. For the same compound, the CC50 at 5 days in series [1] was above 100 µM. Further, the cytotoxic concentration (CC50) at 24 h in series [2] is above 100 µM. Further, the solubility at 30 min in series [3] (setting [5]) worked out at 3.4 mM.
For the compound `C[N+]1(CCCn2cc(-c3ccc4c5cccc6cccc(c7cccc3c74)c65)nn2)CCOCC1.[I-]` [Compound 3b, 4-Methyl-4-(3-(4-(Perylen-3-yl)-1H-1,2,3-triazol-1-yl)propyl)morpholin-4-ium iodide], the 50% effective concentration (EC50) in the series with CHIKV (Vero) is 10.7 ± 2.6 µM; in the series on SARS-CoV-2, 9.2 ± 4.3 µM; with IAV, above 100 µM. For the same compound, the “Activity against CHIKV (in words)” value in the series with CHIKV is given as “had activity”. Further, the “Activity against SARS-CoV-2 (in words)” value with SARS-CoV-2 is “had activity”. The half-maximal cytotoxic concentration (CC50) at 5 days in series [1] is above 100 µM. Also, the 50% cytotoxic concentration (CC50) at 24 h in series [2] is above 100 µM. In series [3] (setting [5]), this compound displayed a solubility at 30 min of 5 mM.
On to `c1cc2cccc3c4ccc(-c5cn(CCCN6CCOCC6)nn5)c5cccc(c(c1)c23)c54` [Compound 2b, 4-(3-(4-(Perylen-3-yl)-1H-1,2,3-triazol-1-yl)propyl)morpholine], for which the 50% effective concentration (EC50) was above 100 µM in the series on CHIKV (Vero), above 100 µM with SARS-CoV-2 and 62 ± 22 µM in the series with IAV. Also, in the series on CHIKV, the “Activity against CHIKV (in words)” value is reported as “did not demonstrate any activity”. Also, in the series on SARS-CoV-2, the “Activity against SARS-CoV-2 (in words)” value is “did not demonstrate any activity”. In addition, the CC50 at 5 days in series [1] was above 100 µM. In series [2], the half-maximal cytotoxic concentration (CC50) at 24 h was above 100 µM.
As for `CC(C)[C@H](N)C(=O)O[C@@H]1[C@H](O)[C@@H](CO)O[C@H]1n1cc(C#Cc2ccc3c4cccc5cccc(c6cccc2c63)c54)c(=O)[nH]c1=O` [Compound 8, 2′-O-L-Valinyl-5-(perylen-3-ylethynyl)uridine], the half-maximal effective concentration (EC50) is 0.55 ± 0.33 µM in the series on CHIKV (Vero), 1.28 ± 0.4 µM with SARS-CoV-2 and 3.8 ± 1.3 µM in the series on IAV. Moreover, the 50% cytotoxic concentration (CC50) at 5 days in series [1] was above 100 µM. The 50% cytotoxic concentration (CC50) at 24 h in series [2] is above 100 µM. Moreover, the “Solubility in water (in words)” value in series [3] is “poor”. For the same compound, in series [3] (setting [5]), the concentration in solution (solubility at 30 min) came to 0.1 mM (≈ 61.8 µg/mL).
In the case of `CC(C)[C@H](NC(=O)OC(C)(C)C)C(=O)O[C@@H]1[C@@H]2O[Si](C(C)C)(C(C)C)O[Si](C(C)C)(C(C)C)OC[C@H]2O[C@H]1n1cc(C#Cc2ccc3c4cccc5cccc(c6cccc2c63)c54)c(=O)[nH]c1=O` [Compound 6, 2′-O-(N-Boc-L-valinyl)-3′,5′-O-(tetraisopropyldisiloxane-1,3-diyl)-5-(perylen-3-ylethynyl)uridine], the concentration for a half-maximal effect (EC50) is above 100 µM in the series on CHIKV (Vero), above 100 µM with SARS-CoV-2 and 31 ± 10 µM with IAV. Moreover, in the series with CHIKV, the “Activity against CHIKV (in words)” value is listed as “did not demonstrate any activity”. Also, the “Activity against SARS-CoV-2 (in words)” value with SARS-CoV-2 is “did not demonstrate any activity”. In series [1], the CC50 at 5 days was above 100 µM. For the same compound, the CC50 at 24 h in series [2] was above 100 µM.
Consider `c1cc2cccc3c4ccc(-c5cn(CCN6CCOCC6)nn5)c5cccc(c(c1)c23)c54` [Compound 2a, 4-(2-(4-(Perylen-3-yl)-1H-1,2,3-triazol-1-yl)ethyl)morpholine], for which the values for the EC50 in the series with CHIKV (Vero), in the series with SARS-CoV-2 and in the series on IAV were 0.47 ± 0.16 µM, 11.3 ± 1.8 µM and 20.6 ± 8 µM, respectively. For the same compound, the 50% cytotoxic concentration (CC50) at 5 days in series [1] is above 100 µM. For the same compound, the half-maximal cytotoxic concentration (CC50) at 24 h in series [2] is above 100 µM.
In the case of `CC(C)[C@H](NC(=O)OC(C)(C)C)C(=O)O[C@@H]1[C@H](O)[C@@H](CO)O[C@H]1n1cc(C#Cc2ccc3c4cccc5cccc(c6cccc2c63)c54)c(=O)[nH]c1=O` [Compound 7, 2′-O-(N-Boc-L-valinyl)-5-(perylen-3-ylethynyl)uridine], the EC50 with CHIKV (Vero) is below 0.016 µM; in the series on SARS-CoV-2, 0.075 ± 0.018 µM; in the series on IAV, 4.6 ± 1 µM. The CC50 at 5 days in series [1] was found to be 98 ± 17 µM. The CC50 at 24 h in series [2] came out at 62 ± 24 µM.
For the compound `CCOC(=O)C1=C[C@@H](OC(CC)CC)[C@H](NC(C)=O)[C@@H](N)C1` [Tamiflu, Oseltamivir phosphate, reference compound], the EC50 in the series on IAV was found to be 0.02 µM. Moreover, the half-maximal cytotoxic concentration (CC50) at 24 h in series [2] is above 100 µM. Moreover, the “Average Life Expectancy (M ± SEM)” value in series [4] (20 mg/kg intragastric, BALB/c mice) was found to be 11.4 ± 1.1 days. Further, in series [4] (20 mg/kg intragastric, […]), the “Protective Index (PI)” value is listed as 56%. Moreover, in series [4] (mouse, in vivo), the “Mortality Rate” value was determined as 40% and the “Reduction in body weight (maximum)” value is recorded as 24.0%.
Take `O=c1[nH]c(=O)n([C@@H]2O[C@H](CO)[C@@H](O)[C@@H]2O)cc1C#Cc1ccc2c3cccc4cccc(c5cccc1c52)c43` [aUY11, 5-(Perylen-3-yl)ethynyl-arabino-uridine, reference compound]: the “Solubility in water (in words)” value in series [3] was “no solubility”. In series [3] (setting [5]), the “Solubility in Water” value is on record as “insoluble”.
For the compound `CC(C)[Si]1(C(C)C)OC[C@H]2O[C@@H](n3cc(C#Cc4ccc5c6cccc7cccc(c8cccc4c85)c76)c(=O)[nH]c3=O)[C@H](O)[C@@H]2O[Si](C(C)C)(C(C)C)O1` [Compound 5, 3′,5′-O-(Tetraisopropyldisiloxan-1,3-diyl)-5-(perylen-3-ylethynyl)uridine], the EC50 in the series on CHIKV (Vero) was determined as 1.17 ± 0.55 µM. Besides, in the series with SARS-CoV-2, the EC50 was above 100 µM and the “Activity against SARS-CoV-2 (in words)” value is listed as “did not demonstrate any activity”. The CC50 at 5 days in series [1] was above 100 µM.
As to `O=c1nc(NO)ccn1[C@@H]1O[C@H](CO)[C@@H](O)[C@H]1O` [NHC, N^4-hydroxycytidine, reference compound], the EC50 in the series with CHIKV (CPE inhibition in Vero cells, 5 days, M ± SD) stood at 9.7 µM; in the series on SARS-CoV-2 it was 7.4 µM. For the same compound, the CC50 at 5 days in series [1] is above 100 µM.
